# Test results reported in PMC5668434, “Modulation of telomere protection by the PI3K/AKT pathway” (Nature Communications, 2017).
# Columns and labels:
# PI3Kγ = conditions: reported in literature; cited from earlier work
# [1] = tested on: ER/Her2-positive breast cancer PDXs; assay: γH2AX and telomere-induced foci (TIFs) in PDXs; assay type: in vivo, mouse; conditions: 12 days
# Description: We also observed a higher number of telomere-induced DNA damage foci (TIFs) in the BYL719-treated “responder” tumors than in the “non-responders” (Fig. 8h, i), in agreement with lower levels of telomere bound TRF1 levels in the “responders” (Fig. 8b, d).
# Formalin-fixed paraffin-embedded PDXs sections were permeabilized with 0.5% PBS-Triton for 1 h and blocked first with fetal bovine serum for 2 h and then in 5% BSA for 2 h. Samples were incubated O/N at 4 °C with the primary antibody. Antibodies used were anti-TRF1 (1:200) (TRF-78, ABCAM, ab10579), anti-RAP1 (1:300) (Bethyl Laboratories, A300-306A), and anti-phospho-histone2 H2AX-Ser139 (γH2AX) (1:300) (Millipore, 05-636). Slides were further incubated with 488-Alexa or 555-Alexa labeled secondary antibodies. Nuclei were counterstained in a 4 µg/ml 4′,6-[…]-2-phenylindole (DAPI)/PBS solution before mounting with Vectashield.
# PI3Kβ = conditions: reported in literature; cited from earlier work
# [2] = tested on: ER/Her2-positive breast cancer PDXs; assay: Mean telomere length by Q-FISH in PDXs; assay type: in vivo, mouse; conditions: seven PDXs; 12 days
# Description: (§1) To this end, we generated PDXs from seven independent ER/Her2-positive breast cancer patients in female athymic NMRI nu/nu mice, and treated these with either the PI3Kα specific inhibitor BYL719 (35 mg/k 6IW) or with vehicle during a total of 12 days. Mice were then killed and PDXs extracted and formalin fixed for further analysis. A TRF1 immunofluorescence followed by a telomere quantitative q-FISH was performed in PDXs sections to identify TRF1 specifically located at telomeres by co-localization of TRF1 protein to telomeric DNA, as well as to quantify telomere length. […] Immunohistochemistry staining of phosphorylated AKT (S473) in these same PDXs followed by quantification of tumor positive area was performed to address the efficacy of BYL719 treatment (Fig. 8c, d). […]
# (§2) An immune-Fish was performed in formalin-fixed paraffin-embedded PDXs sections to identify telomeric TRF1 and quantify telomere length. TRF1 foci were detected by immunofluorescence as described above. Quantitative FISH was performed as follows: samples were permeabilized for 2 h in PBS-5% Triton, blocked for 1 h with 5% BSA in PBS, and immunofluorescence with TRF1 homemade rat TRF1 antibody diluted 1:500 was performed. […] Maximal projection of Z-stack images generated using advanced fluorescence software (LAS) was analyzed with the Definiens XD software package. […]
# [3] = tested on: TRF1 foci in CHA-9.3 mouse lung tumor cell line; assay: TRF1 foci immunofluorescence in CHA-9.3 cells; assay type: cell-based; conditions: Mus musculus; 10 μM; 24 h; CHA-9.3; relative to DMSO; read-out: Inhibition of TRF1 foci fluorescence
# Description: TRF1 immunofluorescence of TRF1 was performed in lung tumor-derived cell line (CHA9.3) and in MEFs[39]. A rat monoclonal antibody against mouse TRF1 developed by the Monoclonal antibody unit at CNIO was used to detect endogenous TRF1 (1:500). GFP-TRF1 fluorescence was directly measured in cells fixed in paraformaldehyde. For quantification of TRF1 foci intensity, pictures of fixed cells were automatically acquired from each well by the Opera HCS system (Perkin Elmer). Sixty images of random fields per well, with a 40× magnification lens, were taken under non-saturating conditions. At least 1 × 10^3 cells were analyzed for each well. Briefly, images were segmented using the DAPI staining to generate masks matching cell nuclei from which-TRF1 foci were analyzed.
# [4] = tested on: pAKT (S473) in ER/Her2-positive breast cancer PDXs; assay: pAKT (S473) immunohistochemistry in breast cancer PDXs; assay type: in vivo, mouse; conditions: 12 days
# Description: To this end, we generated PDXs from seven independent ER/Her2-positive breast cancer patients in female athymic NMRI nu/nu mice, and treated these with either the PI3Kα specific inhibitor BYL719 (35 mg/k 6IW) or with vehicle during a total of 12 days. Mice were then killed and PDXs extracted and formalin fixed for further analysis. A TRF1 immunofluorescence followed by a telomere quantitative q-FISH was performed in PDXs sections to identify TRF1 specifically located at telomeres by co-localization of TRF1 protein to telomeric DNA, as well as to quantify telomere length. Telomeric TRF1 foci at telomeres (green spots) were unequivocally identified by co-localization with telomeric PNA probe (red spots) (Fig. 8a). […] Immunohistochemistry staining of phosphorylated AKT (S473) in these same PDXs followed by quantification of tumor positive area was performed to address the efficacy of BYL719 treatment (Fig. 8c, d). […] These four PDXs were considered as “responders” to the PI3Kαi treatment. […] This unexpected increase in pAKT levels of PDX191 upon BYL719 treatment could be explained by the activation of regulatory feedback loops that trigger compensatory signaling events leading to activation of the AKT pathway. These three PDX (PDX131, PDX39, PDX191) were considered as “non-responders” to the treatment with the PI3Kα inhibitor BYL719. […] It should be pointed out that untreated PDX131 and PDX39 that presented undetectable pAKT levels correspond to those samples with the lowest telomeric TRF1 levels (Fig. 8b, d). […] In addition, the telomere length changes were more moderate as compared to changes observed in TRF1 levels.
# Experiments were conducted following the European Union’s animal care directive (86/609/EEC) and were approved by the Ethical Committee of Animal Experimentation of the Vall d’Hebron Research Institute and patient consent. Fresh primary or metastatic human breast tumors were obtained from patients at time of surgery or biopsy. […]
# PI3Kα = conditions: reported in literature; cited from earlier work
# mTOR = conditions: reported in literature; cited from earlier work
# [5] = tested on: telomeric TRF1 in ER/Her2-positive breast cancer PDXs; assay: Telomeric TRF1 foci (immuno-FISH) in breast cancer PDXs; assay type: in vivo, mouse; conditions: BYL719 35 mg/kg QD 6 days/week, 12 days
# Description: as §1, §2
# PI3Kδ = conditions: reported in literature; cited from earlier work
# mTOR (FRAP1) = target: T1, mTOR (FRAP1) (Homo sapiens, UniProt P42345); assay: mTOR biochemical assay (LanthaScreen); conditions: as given in the text
# T1 construct: purchased ThermoFisher PV4753
# T1 sequence (P42345 1360-2549 limits assumed): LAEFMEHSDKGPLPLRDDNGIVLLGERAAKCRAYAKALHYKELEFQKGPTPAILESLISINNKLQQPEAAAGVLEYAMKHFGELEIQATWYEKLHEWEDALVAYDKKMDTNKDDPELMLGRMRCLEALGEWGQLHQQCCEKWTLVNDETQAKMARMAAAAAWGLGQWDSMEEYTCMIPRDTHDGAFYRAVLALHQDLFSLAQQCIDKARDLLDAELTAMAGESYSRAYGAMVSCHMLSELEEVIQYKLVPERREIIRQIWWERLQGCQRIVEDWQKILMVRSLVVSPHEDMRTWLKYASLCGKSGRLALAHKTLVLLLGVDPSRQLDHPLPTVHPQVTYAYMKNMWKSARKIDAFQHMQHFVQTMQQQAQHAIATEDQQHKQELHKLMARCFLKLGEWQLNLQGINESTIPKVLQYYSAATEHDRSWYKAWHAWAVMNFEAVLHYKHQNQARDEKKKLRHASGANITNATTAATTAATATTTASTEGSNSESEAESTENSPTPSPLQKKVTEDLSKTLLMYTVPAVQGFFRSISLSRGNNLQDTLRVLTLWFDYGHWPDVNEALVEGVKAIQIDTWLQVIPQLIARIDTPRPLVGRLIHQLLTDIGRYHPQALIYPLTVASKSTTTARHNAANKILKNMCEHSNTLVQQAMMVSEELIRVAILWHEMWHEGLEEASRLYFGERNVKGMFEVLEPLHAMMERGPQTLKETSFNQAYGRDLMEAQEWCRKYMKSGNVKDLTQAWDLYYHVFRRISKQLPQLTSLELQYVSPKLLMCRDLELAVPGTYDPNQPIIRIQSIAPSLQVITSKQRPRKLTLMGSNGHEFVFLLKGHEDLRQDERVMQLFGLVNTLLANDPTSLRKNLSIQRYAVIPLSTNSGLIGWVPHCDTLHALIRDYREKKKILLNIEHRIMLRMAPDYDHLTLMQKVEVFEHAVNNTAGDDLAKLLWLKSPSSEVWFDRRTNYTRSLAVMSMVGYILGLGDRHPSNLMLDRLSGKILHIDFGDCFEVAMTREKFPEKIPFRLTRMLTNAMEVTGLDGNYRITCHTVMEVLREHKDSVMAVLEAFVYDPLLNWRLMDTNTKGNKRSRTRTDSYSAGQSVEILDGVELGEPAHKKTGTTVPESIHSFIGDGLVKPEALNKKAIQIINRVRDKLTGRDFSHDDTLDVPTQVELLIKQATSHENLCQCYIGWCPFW
compound,measurement,setting,value
Cc1nc(NC(=O)N2CCC[C@H]2C(N)=O)sc1-c1ccnc(C(C)(C)C(F)(F)F)c1 [BYL-719],IC50,PI3Kγ,250 nM
same,"Telomere-induced DNA damage foci (TIFs), responders vs non-responders",[1]; BYL719-treated PDXs,higher number
same,Cells presenting DNA damage (γH2AX positive cells),[1]; responder PDXs,significant increase
same,IC50,PI3Kβ,1200 nM
same,Mean telomere length upon treatment (in words),[2],moderate but significant changes
same,inhibition at 10 µM,[3],30%
same,pAKT levels upon treatment (in words),[4]; PDX39 (negative for pAKT at basal levels),remained unchanged
same,pAKT levels upon treatment (in words),[4]; PDX131 (negative for pAKT at basal levels),remained unchanged
same,"pAKT (S473) positive tumor area, percent change vs vehicle (↑ increase)","[4]; PDX191, BYL719 35 mg/kg QD 6 days/week",46%
same,IC50,mTOR,> 9100 nM
same,Telomeric TRF1 levels vs vehicle (in words),[5]; PDX98,remained unchanged
same,"Telomeric TRF1 spot intensity, percent change vs vehicle (↑ increase)",[5]; PDX191,80%
same,IC50,PI3Kδ,290 nM
same,IC50,mTOR (FRAP1),> 10000 nM
